# Laboratory results from patent publication US9848603B2, “Methods for protecting plants with antifungal compositions” (priority 2008, dated 2017).
# Ends that are not written are not given here.
# How the values were obtained:
# Fov hyphae [1] = experiment: Detection of reactive oxygen species (DHR123 oxidation) in response to NaD1; settings: for effect of ROS scavenger on NaD1-induced DHR123 oxidation: in the presence of ascorbic acid or TEMPO
# [2] = system: Fusarium oxysporum f. sp. vasinfectum (Fov); assay type: cell-based
# [3] = system: Fusarium oxysporum f. sp. vasinfectum (Fov); experiment: Growth of Fusarium oxysporum in the presence of NaD1 and chemical fungicides in vitro; assay type: cell-based; settings: Fov growth curves, combination with NaD1
# Experimental: The inhibitory effects of defensin (NaD1) and chemical fungicides on the growth of Fusarium oxysporum f. sp. vasinfectum (Fov) (Australian isolate VCG01111 isolated from cotton and provided by Farming Systems Institute, DPI, Queensland, Australia) were measured essentially as described by Broekaert, et al (1990). Spores were isolated from sporulating cultures growing in ½ strength potato dextrose broth (PDB). The Fov culture was grown in ½ PDB for 1-2 weeks at room temperature, before spores were separated from hyphal matter by filtration through sterile tissue paper. The concentration of spores in the filtrate was measured using a hemocytometer. NaD1 and the fungicides were prepared as described in Example 1. The conditions used for the fungal growth assay were the same as those described in Example 1.
# Leptosphaeria maculans = experiment: Growth of Leptosphaeria maculans in the presence of NaD1 and chemical fungicides in vitro; assay type: cell-based; settings: L. maculans, combination with NaD1
# Experimental: The defensin (NaD1) and the chemical fungicides prothioconazole (Sigma-Aldrich Cat #34232, 99.9% pure) and fluquinconazole (Nova Chem, Cat #C13805000, 98.5% pure) were assessed for their individual and combined inhibitory effects on the growth of Leptosphaeria maculans (Australian isolate IBCN18, Prof. B. Howlett) in vitro.
# Leptosphaeria maculans was grown in 10% (v/v) V8 medium for about 2 weeks. Spores were collected by filtration through sterile muslin and adjusted to a final concentration of 5×10^4 spores/mL. The conditions used for the fungal growth assay were the same as those described in Example 1 except 10% (v/v) V8 medium was used.
# Verticillium dahliae = experiment: Growth of Verticillium dahliae in the presence of NaD1 and chemical fungicides in vitro; assay type: cell-based; settings: V. dahliae growth curves, combination with NaD1
# Experimental: The inhibitory effects of defensin (NaD1) and chemical fungicides were assayed on growth of Verticillium dahliae (Australian isolate VCG-4B, Dr. Stephen Allen, Cotton Seed Distributors, Narrabri, NSW, Australia) in vitro.
# Spores of V. dahliae were isolated from sporulating cultures growing in Czapek-Dox broth (Difco) for 1-2 weeks at room temperature. Spores were separated from hyphal matter by filtration through sterile tissue paper and the concentration of spores in the filtrate was measured using a hemocytometer. NaD1 and the fungicides were prepared as described in Example 1. The conditions used for the fungal growth assay were the same as those described in Example 1 except that Czapek-Dox broth was used in place of PDB.
# Fusarium graminearum = experiment: microbe, parasite or virus in culture; assay type: cell-based
# Saccharomyces cerevisiae = experiment: Effect of NaD1 on growth of yeast strains
# Experimental: (§1) The effect of NaD1 on the growth of the yeast strains Candida albicans, Pichia pastoris and Saccharomyces cerevisiae (from Department of Microbiology, La Trobe University) was assayed in microtitre plates. Cells were grown in YPD for 48 h, then counted using a haemocytometer and diluted to a concentration of 5×10^4 cells/mL in fresh YPD. Cell suspension (100 μL) containing 0-10 μM NaD1 was added to the wells of a 96-well microtitre plate and incubated for 48 h at 30° C. Growth was determined by measuring the optical density at 595 nm using a microtitre plate reader. Each test was performed in quadruplicate.
# Fov hyphae [4] = experiment: Uptake of fluorescently labeled NaD1 (NaD1-bimane) by fluorescence microscopy; settings: live hyphae
# Experimental: Hyphae grown for 18 h as described were treated with NaD1-bimane (2 μM) for between 10 min and 6 h. Hyphae were then visualized by fluorescence microscopy using an MWU filter (excitation wavelength of 330-385 nm).
# Fov hyphae [5] = experiment: Membrane permeabilization of Fov hyphae, SYTOX green uptake; assay type: cell-based, Fusarium oxysporum f. sp. vasinfectum; settings: 0.1, 2 or 10 μM NaD1 or 10 μM NaD1R&A
# Candida albicans = experiment: Effect of NaD1 on growth of yeast strains
# Experimental: as §1
compound,measurement,setting,value
CC1(C)CCCC(C)(C)N1[O] [TEMPO],effect of ROS scavenger on NaD1-induced DHR123 oxidation,Fov hyphae [1],did not alter the level of fluorescence
"O=C1O[C@H]([C@@H](O)CO)C(O)=C1O [ascorbic acid, Ascorbic acid]",effect of ROS scavenger on NaD1-induced DHR123 oxidation,Fov hyphae [1],did not alter the level of fluorescence
same,effect of ROS scavenger on growth inhibition of Fov by NaD1,[2],nor did the presence of 10 mM ascorbic acid affect growth inhibition of Fov by NaD1
CO/C=C(/C(=O)OC)c1ccccc1Oc1cc(Oc2ccccc2C#N)ncn1 [azoxystrobin],synergism with NaD1,[3],synergistic effect
CO/N=C(/C1=NOCCO1)c1ccccc1Oc1ncnc(Oc2ccccc2Cl)c1F [fluoxastrobin],synergism with NaD1,[3],synergy
O=c1c2cc(F)ccc2nc(-n2cncn2)n1-c1ccc(Cl)cc1Cl [fluquinconazole],enhancement of fungicide activity by defensin,Leptosphaeria maculans,synergistic
C[Si](Cn1cncn1)(c1ccc(F)cc1)c1ccc(F)cc1 [flusilazole],synergism with NaD1,Verticillium dahliae,Synergism
CO/C=C(/C(=O)OC)c1ccccc1COc1cccc(C(F)(F)F)n1 [picoxystrobin],synergism with NaD1,[3],synergy
CCCC1COC(Cn2cncn2)(c2ccc(Cl)cc2Cl)O1 (stereo not drawn) [propiconazole],synergism with NaD1,Verticillium dahliae,Synergism
same,synergism with NaD1,[3],Synergism
same,toxicity with Fusarium graminearum,Fusarium graminearum; 0.24 μM NaD1 combined with 1 mg/L propiconazole,significantly enhanced
same,synergism with NaD1,"Fusarium graminearum; F. graminearum growth curves, combination with NaD1",Synergism
same,inhibition at 0.06 µg/mL,"Fusarium graminearum; Fusarium graminearum, read-out: inhibition of fungal growth",~13%
same,inhibition of fungal growth,Fusarium graminearum; combination of 0.5 μM defensin and 0.06 mg/L propiconazole,about 78%
OC(Cc1ccccc1Cl)(Cn1nc[nH]c1=S)C1(Cl)CC1 (stereo not drawn) [prothioconazole],enhancement of fungicide activity by defensin,Leptosphaeria maculans,synergistic
CC(C)(C)C(O)(CCc1ccc(Cl)cc1)Cn1cncn1 (stereo not drawn) [tebuconazole],synergism with NaD1,Verticillium dahliae,Synergism
"DmAMP1: plant defensin from dahlia (ELCEKASKTWSGNCGNTGHCDNQCKSWEGAAHGACHVRNGKHMCFCYFNC; UniProt P0C8Y4 1-50, looked up) [reference compound]",effect on growth,Saccharomyces cerevisiae,inhibited the growth
"NaD1 labeled with FITC: NaD1 labeled with FITC via reactive amine groups (RECKTESNTFPGICITKPPCRKACISEKFTDGHCSKILRRCLCTKPC; cysteine pairing not given here; also: FITC label via reactive amine groups; UniProt Q8GTM0 26-72, looked up)",antifungal activity of labeled NaD1,[2],not biologically active
"NaD1-bimane: NaD1 labeled with the fluorophore bimane amine on carboxyl residues (RECKTESNTFPGICITKPPCRKACISEKFTDGHCSKILRRCLCTKPC; cysteine pairing not given here; also: bimane amine fluorophore on carboxyl residues; UniProt Q8GTM0 26-72, looked up)",time at which internalization was observed,Fov hyphae [4],20 to 30 min
same,antifungal activity of labeled NaD1,[2],retained full antifungal activity
"NaD1R&A: NaD1 with cysteine residues reduced and alkylated (RECKTESNTFPGICITKPPCRKACISEKFTDGHCSKILRRCLCTKPC; also: cysteines reduced and alkylated; UniProt Q8GTM0 26-72, looked up)",ROS production (DHR123 oxidation fluorescence),"Fov hyphae [1]; NaD1 0.1, 2 and 10 μM or 10 μM NaD1R&A",No fluorescence was observed
same,activity in growth inhibitory assays,[2],completely inactive
same,permeabilization of hyphae (SYTOX green),Fov hyphae [5],Permeabilization was not observed
"RsAFP2: plant defensin from radish (QKLCQRPSGTWSGVCGNNNACKNQCIRLEKARHGSCNYVFPAHKCICYFPC; UniProt P30230 30-80, looked up) [reference compound]",effect on growth,Candida albicans,inhibited the growth
